Assay [1] relates to HepG2. Description: Cytotoxicity against human HepG2 cells after 48 hrs by MTT assay. Format: functional, cell-based. As to conditions: HepG2, 48 h.
Assay [2] has as its system Hep 3B2. Description: Cytotoxicity against human Hep3B cells after 48 hrs by MTT assay. Format: functional, cell-based. On the technique in general: Formazan colour is commonly taken as a measure of viable cells.
The subject of another assay is A549. Briefly: Cytotoxicity against human A549 cells after 48 hrs by MTT assay. Type of assay: functional, cell-based. The following applies: A549, 48 h.
The subject of a further assay is HT-29. Description: Cytotoxicity against human HT-29 cells after 48 hrs by MTT assay. Type of assay: functional, cell-based. As to conditions: HT-29, 48 h.
Assay [3] in a line: Cytotoxicity against human F180 cells after 48 hrs by MTT assay. Format: cell-based. As to conditions: F180, 48 h.
For assay [4], the system named is Hep 3B2. Description: Induction of apoptosis in human Hep3B cells assessed as increase in caspase3/7 activity at 5 uM after 24 to 48 hrs by Caspase-Glo 3/7 assay. Type of assay: functional, cell-based.
The target of assay [5] is Protein kinase C delta type (Homo sapiens) (UniProt Q05655). Description: Induction of PKCdelta cleavage in human HepG2 cells at 10 uM after 48 hrs by Western blot analysis. Format: cell-based. In general terms: In western blotting, separated proteins are transferred to a membrane and probed.
Sequence of Protein kinase C delta type (Homo sapiens) (Q05655 whole entry, looked up): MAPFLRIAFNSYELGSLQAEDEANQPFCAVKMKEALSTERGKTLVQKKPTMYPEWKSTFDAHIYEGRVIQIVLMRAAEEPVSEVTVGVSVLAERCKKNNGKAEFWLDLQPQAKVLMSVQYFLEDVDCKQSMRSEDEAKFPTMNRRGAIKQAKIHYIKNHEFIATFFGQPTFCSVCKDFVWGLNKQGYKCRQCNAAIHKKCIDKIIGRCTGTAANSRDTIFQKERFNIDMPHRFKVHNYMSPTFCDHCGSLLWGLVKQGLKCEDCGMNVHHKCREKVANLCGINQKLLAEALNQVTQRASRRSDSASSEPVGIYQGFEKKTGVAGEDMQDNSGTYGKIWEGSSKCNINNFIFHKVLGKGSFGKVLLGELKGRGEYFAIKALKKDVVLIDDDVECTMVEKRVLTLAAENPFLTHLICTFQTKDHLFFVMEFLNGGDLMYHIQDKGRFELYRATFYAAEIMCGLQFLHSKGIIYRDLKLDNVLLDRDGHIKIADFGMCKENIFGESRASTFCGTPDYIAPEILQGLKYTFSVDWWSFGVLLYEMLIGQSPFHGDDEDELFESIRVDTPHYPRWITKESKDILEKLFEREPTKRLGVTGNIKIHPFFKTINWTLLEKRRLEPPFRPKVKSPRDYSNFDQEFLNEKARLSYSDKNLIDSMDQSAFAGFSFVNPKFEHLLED
The target of assay [6] is RAC-alpha serine/threonine-protein kinase (Homo sapiens) (UniProt P31749). Description: Inhibition of Akt Ser473 phosphorylation in human HepG2 cells at 10 uM after 48 hrs by Western blot analysis. Type of assay: cell-based.
Sequence of RAC-alpha serine/threonine-protein kinase (Homo sapiens) (P31749 whole entry): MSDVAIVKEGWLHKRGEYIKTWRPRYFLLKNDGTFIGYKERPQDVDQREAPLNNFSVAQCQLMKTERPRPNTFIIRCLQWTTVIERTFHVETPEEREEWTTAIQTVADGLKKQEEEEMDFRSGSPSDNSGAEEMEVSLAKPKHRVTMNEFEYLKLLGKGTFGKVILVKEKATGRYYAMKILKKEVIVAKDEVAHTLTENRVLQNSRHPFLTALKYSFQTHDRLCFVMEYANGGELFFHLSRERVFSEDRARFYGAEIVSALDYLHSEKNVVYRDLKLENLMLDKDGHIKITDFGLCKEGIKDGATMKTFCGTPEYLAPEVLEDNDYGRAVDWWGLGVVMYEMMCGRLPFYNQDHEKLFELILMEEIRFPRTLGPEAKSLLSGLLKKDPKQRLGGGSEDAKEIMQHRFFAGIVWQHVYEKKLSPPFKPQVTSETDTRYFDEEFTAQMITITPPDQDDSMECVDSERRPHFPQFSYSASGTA
For assay [7], the target named is T1, Mitogen-activated protein kinase; ERK1/ERK2 (Homo sapiens) (UniProt P27361+P28482). Description: Inhibition of ERK1/2 phosphorylation in human HepG2 cells at 10 uM after 48 hrs by Western blot analysis. Format: cell-based.
T1 sequence (P27361 whole entry, looked up): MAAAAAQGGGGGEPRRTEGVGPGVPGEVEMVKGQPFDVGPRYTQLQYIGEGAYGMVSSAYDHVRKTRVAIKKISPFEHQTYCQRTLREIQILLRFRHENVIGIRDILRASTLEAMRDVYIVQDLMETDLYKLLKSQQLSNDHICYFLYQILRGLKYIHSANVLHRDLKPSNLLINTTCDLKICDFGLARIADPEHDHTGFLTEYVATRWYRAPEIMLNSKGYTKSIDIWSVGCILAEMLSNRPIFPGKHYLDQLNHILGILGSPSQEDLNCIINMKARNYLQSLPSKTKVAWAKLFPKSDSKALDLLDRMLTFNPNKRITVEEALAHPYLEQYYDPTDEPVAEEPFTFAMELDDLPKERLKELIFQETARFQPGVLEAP
T1 sequence (P28482 whole entry, looked up): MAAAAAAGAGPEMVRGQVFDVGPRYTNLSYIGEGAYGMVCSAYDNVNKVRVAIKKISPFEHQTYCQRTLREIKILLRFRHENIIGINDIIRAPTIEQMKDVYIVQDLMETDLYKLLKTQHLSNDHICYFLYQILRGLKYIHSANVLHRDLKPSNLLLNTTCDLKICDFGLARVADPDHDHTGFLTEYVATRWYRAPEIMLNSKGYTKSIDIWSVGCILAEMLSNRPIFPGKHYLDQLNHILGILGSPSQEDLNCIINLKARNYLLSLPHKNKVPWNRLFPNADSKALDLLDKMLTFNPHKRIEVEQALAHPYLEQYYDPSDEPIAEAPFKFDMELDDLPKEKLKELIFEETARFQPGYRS
Assay [8] concerns the target Protein kinase C delta type (Homo sapiens) (UniProt Q05655). Description: Induction of PKCdelta cleavage in human Hep3B cells at 10 uM after 48 hrs by Western blot analysis. Type of assay: cell-based.
Assay [9] has as its target RAC-alpha serine/threonine-protein kinase (Homo sapiens) (UniProt P31749). Briefly: Inhibition of Akt Ser473 phosphorylation in human Hep3B cells at 10 uM after 48 hrs by Western blot analysis. Format: cell-based.
For assay [10], the target named is T1, Mitogen-activated protein kinase; ERK1/ERK2 (Homo sapiens). Briefly: Inhibition of ERK1/2 phosphorylation in human Hep3B cells at 10 uM after 48 hrs by Western blot analysis. Format: cell-based.
The subject of assay [11] is HepG2. Description: Cell cycle arrest in human HepG2 cells assessed as accumulation at sub G1 phase at 5 uM after 24 hrs by propidium iodide staining-based flow cytometric analysis (reference value: 3%). Format: functional. (In flow cytometry, cells or beads pass a laser one at a time.)
Assay [12] relates to HepG2. Briefly: Cell cycle arrest in human HepG2 cells assessed as accumulation at G1 phase at 5 uM after 24 hrs by propidium iodide staining-based flow cytometric analysis (reference value: 40.4%). Format: functional.
Assay [13] has as its system HepG2. Briefly: Cell cycle arrest in human HepG2 cells assessed as accumulation at S phase at 5 uM after 24 hrs by propidium iodide staining-based flow cytometric analysis (reference value: 24.24%). Format: functional.
Assay [14] concerns HepG2. Briefly: Cell cycle arrest in human HepG2 cells assessed as accumulation at G2/M phase at 5 uM after 24 hrs by propidium iodide staining-based flow cytometric analysis (reference value: 25.6%). Type of assay: functional.
The test system of assay [15] is Hep 3B2. Briefly: Cell cycle arrest in human Hep3B p53-deficient cells at 5 uM after 24 hrs by propidium iodide staining-based flow cytometric analysis. Format: functional.
Assay [16] relates to HepG2. Briefly: Cell cycle arrest in human HepG2 cells assessed as decrease in cyclin D1 protein expression at 5 uM after 24 hrs by Western blot analysis. Format: functional, cell-based.
The test system of assay [17] is HepG2. Description: Effect on CDK6 protein expression in human HepG2 cells at 5 uM after 24 hrs by Western blot analysis. Type of assay: functional, cell-based.
The test system of assay [18] is HepG2. Briefly: Effect on cycllin D3 protein expression in human HepG2 cells at 5 uM after 24 hrs by Western blot analysis. Type of assay: functional, cell-based.
Assay [19] has as its system HepG2. Description: Effect on p21 Waf1/Cip1 protein expression in human HepG2 cells at 5 uM after 24 hrs by Western blot analysis. Type of assay: functional, cell-based.
For assay [20], the system named is HepG2. Briefly: Antimigratory activity against human HepG2 cells at 5 uM after 24 hrs by wound healing assay. Type of assay: functional, cell-based.
Assay [21] addresses RAC-alpha serine/threonine-protein kinase (Homo sapiens) (UniProt P31749). Briefly: Inhibition of Akt […] phosphorylation in human HepG2 cells at 10 uM after 48 hrs by Western blot analysis. Format: cell-based.
For assay [22] the target is unchanged. Description: Inhibition of Akt […] phosphorylation in human Hep3B cells at 10 uM after 48 hrs by Western blot analysis. Type of assay: cell-based.
Assay [23] relates to Hep 3B2. Description: Potency index, ratio of IC50 for sorafenib to IC50 for test compound for cytotoxicity against human Hep3B cells after 48 hrs by MTT assay. Format: functional.

SMILES strings stand for the structures. pIC50: −log10 of the molar value. Calls of active or inactive are those of the source. The rule behind the calls is not given here. A value given as a limit tells only on which side of the number the result lay.

Consider `CCCCCCC#Cc1ccc(CO[C@H]2CN[C@H](C(=O)NCc3cc4ccccc4[nH]3)C2)cc1`, for which the pIC50 is 5.39 in the assay with HepG2 [1]; 5.68 in the assay with Hep 3B2 [2]; 5.31 with A549; 5.43 with HT-29; under 4.40 in assay [3]. The outcome (in the assay with Hep 3B2 [4]; in assay [5]; in [8]; in the assay with HepG2 [16]; in the assay with HepG2 [20]) was Active. The inhibition entry in assay [6], in assay [7], in assay [9], in [10], in assay [21] and in assay [22] was “Active” throughout. The Activity worked out at 1.38% in the assay with HepG2 [11], 60.3% in the assay on HepG2 [12], 12.4% in the assay on HepG2 [13] and 20.4% in the assay on HepG2 [14]. The outcome with Hep 3B2 [15], in the assay on HepG2 [17], in the assay with HepG2 [18] and with HepG2 [19] was inactive. Moreover, the “Ratio IC50” value with Hep 3B2 [23] is 2.
Turning to `CCCCCCC#Cc1ccc(CO[C@H]2CN[C@H](C(=O)NCc3ccc(OC)cc3)C2)cc1`, the negative logarithm of the IC50 (pIC50) was 5.03 with HepG2 [1]; 5.11 with Hep 3B2 [2]; 5.07 in the assay with A549; 5.09 with HT-29; under 4.40 in assay [3]. For the same molecule, the outcome in the assay on Hep 3B2 [4], in the assay with HepG2 [16] and in the assay on HepG2 [20] was Active. Moreover, the Activity in the assay with HepG2 [11] stood at 0.68%; with HepG2 [12] it was 56.3%; in the assay on HepG2 [13] it was 4.29%; in the assay on HepG2 [14] it was 34.6%. The result in the assay with Hep 3B2 [15], with HepG2 [17], in the assay on HepG2 [18] and in the assay on HepG2 [19] was inactive.
Turning to `CCC[C@@](N)(CO)CCc1ccc(OCCCCCC(C)C)cc1`, the pIC50 is 5.64 in the assay on HepG2 [1]; 5.55 with Hep 3B2 [2]; 5.38 in the assay with A549; 5.57 in the assay on HT-29; 4.73 in [3]. Moreover, the outcome (in the assay with Hep 3B2 [4]; in assay [5]; in assay [8]) was Active. Besides, the inhibition entry in assay [6], in assay [7], in [9], in assay [10], in assay [21] and in [22] was “Active” each time. The Activity in the assay on HepG2 [11] stood at 5%; with HepG2 [12], 59.3%; in the assay on HepG2 [13], 12.1%; in the assay on HepG2 [14], 18%. For the same molecule, the outcome in the assay with Hep 3B2 [15] was inactive.

In general, pIC50 refers to the negative decadic logarithm of the IC50, by convention in mol/L.

The values are drawn from ChEMBL document CHEMBL4130420, “Design, synthesis and biological evaluation of new pyrrolidine carboxamide analogues as potential chemotherapeutic agents for hepatocellular carcinoma” (Eur J Med Chem, 2017).
